Data: the supplement of paper PMC10307832

Experiments:
Assay in all cases: relative viability (nuclei count vs DMSO), 5 days (fraction); higher = more cells survive
[1] = compound: C1CC2=C(C1)C=C(C=C2)OC3=NC(=C4C(=N3)N(C=N4)CC5=CC=C(C=C5)C6=CC=CC=C6)N[C@@H](CC7=CC=CC=C7)CO [QS11] + O=C(c1cc(Cc2n[nH]c(=O)c3ccccc23)ccc1F)N1CCN(C(=O)C2CC2)CC1 [Olaparib] (partner 8 µM)
How it was run: (§1)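 Five library-drug doses in √10 steps were combined with a fixed anchor-drug dose, or a single drug was given alone, by pin tool to lung cancer cell lines in 1536-well plates the day after seeding. Nuclei were stained and counted after 5 days. Relative viability is the nuclei count in treated wells over that in vehicle wells, taken as the median of duplicate plates.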

[2] = compound: C1CC2=C(C1)C=C(C=C2)OC3=NC(=C4C(=N3)N(C=N4)CC5=CC=C(C=C5)C6=CC=CC=C6)N[C@@H](CC7=CC=CC=C7)CO [QS11] + Cc1cc(Nc2cc(N3CCN(C)CC3)nc(Sc3ccc(NC(=O)C4CC4)cc3)n2)n[nH]1 [Tozasertib] (partner 0.1 µM)
How it was run: as §1

[3] = compound: CC1=C(C=C(C=C1)NC(=O)C2=CC(=CC=C2)C(C)(C)C#N)NC3=CC4=C(C=C3)N=CN(C4=O)C [AZ628] + C[C@]1(O)C[C@@H](c2nc(-c3ccc4ccc(-c5ccccc5)nc4c3)c3c(N)nccn32)C1 [Linsitinib] (partner 1 µM)
How it was run: as §1

[4] = compound: CC1=C(C=C(C=C1)NC(=O)C2=CC(=CC=C2)C(C)(C)C#N)NC3=CC4=C(C=C3)N=CN(C4=O)C [AZ628] + N=C(N)NC(=N)NCCc1ccccc1 [Phenformin] (partner 250 µM)
How it was run: as §1

| Cell Line | relative viability ([1]; first compound 0.08 µM) | relative viability ([1]; first compound 0.253 µM) | relative viability ([1]; first compound 0.8 µM) | relative viability ([1]; first compound 2.53 µM) | relative viability ([1]; first compound 8 µM) | relative viability ([2]; first compound 0.08 µM) | relative viability ([2]; first compound 0.253 µM) | relative viability ([2]; first compound 0.8 µM) | relative viability ([2]; first compound 2.53 µM) | relative viability ([2]; first compound 8 µM) | relative viability ([3]; first compound 0.08 µM) | relative viability ([3]; first compound 0.253 µM) | relative viability ([3]; first compound 0.8 µM) | relative viability ([3]; first compound 2.53 µM) | relative viability ([3]; first compound 8 µM) | relative viability ([4]; first compound 0.08 µM) | relative viability ([4]; first compound 0.253 µM) | relative viability ([4]; first compound 0.8 µM) | relative viability ([4]; first compound 2.53 µM) | relative viability ([4]; first compound 8 µM) |
| --- | --- | --- | --- | --- | --- | --- | --- | --- | --- | --- | --- | --- | --- | --- | --- | --- | --- | --- | --- | --- |
| NCI-H2405 | 0.847 | 0.803 | 0.768 | 0.961 | 0.83 | 0.752 | 0.699 | 0.725 | 0.758 | 0.899 | 0.463 | 0.646 | 0.477 | 0.387 | 0.409 | 0.153 | 0.202 | 0.229 | 0.235 | 0.24 |
| NCI-H2126 | 0.874 | 0.95 | 0.8 | 0.799 | 0.634 | 0.803 | 0.849 | 0.817 | 0.886 | 0.795 | 0.762 | 0.746 | 0.776 | 0.721 | 0.664 | 0.524 | 0.542 | 0.491 | 0.484 | 0.545 |
| LK-2 | 0.569 | 0.764 | 1.03 | 0.734 | 0.856 | 0.177 | 0.194 | 0.181 | 0.173 | 0.19 | 0.694 | 0.458 | 0.437 | 0.527 | 0.235 | 0.508 | 0.312 | 0.557 | 0.304 | 0.172 |
| SK-MES-1 | 0.672 | 0.677 | 0.717 | 0.75 | 0.804 | 1.04 | 0.906 | 0.833 | 0.905 | 0.745 | 0.98 | 1.06 | 0.939 | 1.03 | 0.637 | 0.715 | 0.661 | 0.619 | 0.675 | 0.466 |
| NCI-H1944 | 0.395 | 0.482 |  | 0.397 | 0.394 | 0.258 | 0.274 |  | 0.271 | 0.24 | 1.21 | 1.14 | 0.987 | 0.876 | 0.703 | 0.188 | 0.181 | 0.184 | 0.177 | 0.187 |
| SW 1573 | 0.615 | 0.489 | 0.503 | 0.416 | 0.463 | 0.235 | 0.138 | 0.186 | 0.212 | 0.197 | 0.599 | 0.725 | 0.661 | 0.632 | 0.412 | 0.322 | 0.308 | 0.215 | 0.288 | 0.2 |
| PC-14 | 0.253 | 0.339 | 0.249 | 0.272 | 0.38 | 0.552 | 0.575 | 0.487 | 0.652 | 0.602 | 0.946 | 0.862 | 0.946 | 0.981 | 0.703 | 0.638 | 0.438 | 0.498 | 0.599 | 0.416 |
| LC-2-ad | 0.668 | 0.719 | 0.551 | 0.706 | 0.781 | 0.445 | 0.471 | 0.476 | 0.507 | 0.439 | 0.882 | 0.829 | 0.883 | 0.832 | 0.486 | 0.606 | 0.562 | 0.556 | 0.49 | 0.532 |
| 201T | 0.876 | 1.05 | 0.699 | 0.898 | 0.718 | 0.956 | 1.03 | 0.694 | 0.892 | 0.584 | 1.06 | 0.978 | 1.07 | 1 | 0.998 | 0.507 | 0.455 | 0.245 | 0.438 | 0.445 |
| NCI-H2023 | 0.414 | 0.556 | 0.398 | 0.514 | 0.439 | 0.381 | 0.38 | 0.276 | 0.222 | 0.219 | 0.723 | 0.677 | 0.72 | 0.758 | 0.358 | 0.387 | 0.392 | 0.368 | 0.381 | 0.293 |
| HOP-62 | 0.477 | 0.46 | 0.31 | 0.319 | 0.382 | 0.363 | 0.442 | 0.31 | 0.281 | 0.302 | 1.09 | 0.919 | 1.06 | 1.17 | 0.535 | 0.792 | 0.821 | 0.707 | 0.746 | 0.437 |
| NCI-H661 | 0.708 | 0.791 | 0.637 | 0.745 | 0.71 | 0.36 | 0.375 | 0.299 | 0.353 | 0.343 | 0.474 | 0.523 | 0.49 | 0.517 | 0.443 | 0.283 | 0.266 | 0.278 | 0.292 | 0.275 |
| NCI-H1734 | 0.625 | 0.649 | 0.608 | 0.587 | 0.507 | 0.25 | 0.273 | 0.28 | 0.246 | 0.316 | 0.853 | 0.794 | 0.804 | 0.759 | 0.496 | 0.383 | 0.346 | 0.282 | 0.327 | 0.247 |
| EKVX | 0.829 | 0.768 | 0.715 | 0.822 | 1.01 | 0.369 | 0.367 |  | 0.302 | 0.457 | 1.18 | 0.922 | 1 | 1.03 | 0.824 | 0.241 | 0.222 | 0.187 | 0.232 | 0.211 |
| NCI-H1355 | 0.624 | 0.732 | 0.693 | 0.678 | 0.75 | 0.569 | 0.564 | 0.425 | 0.452 | 0.413 | 0.846 | 0.93 | 0.765 | 0.806 | 0.655 | 0.502 | 0.444 | 0.431 | 0.411 | 0.39 |
| H3255 | 0.548 | 0.588 | 0.456 | 0.567 | 0.534 | 0.639 | 0.853 |  | 0.651 | 0.589 | 0.965 | 0.859 | 0.965 | 0.968 | 0.737 | 0.41 | 0.33 | 0.337 | 0.393 | 0.302 |
